Common to all, as to assay type: functional
Assay [1] relates to Radical scavenging activity. Description: Antioxidant activity assessed as DPPH radical scavenging activity at 300 uM after 48 hrs by spectrophotometry. On the technique in general: The DPPH test is a chemical assay of radical scavenging.
Assay [2] in a line: Antioxidant activity assessed as ABTS radical scavenging activity.
Assay [3] is described as follows: Antioxidant activity assessed as oxygen radical scavenging activity by ORAC assay.

Results on six compounds are retold here after ChEMBL document CHEMBL1154806, “Indole derivatives from a marine sponge-derived yeast as DPPH radical scavengers” (J Nat Prod, 2009).

Active and inactive are the calls of the source. The calls are words filed in the database; no cut-off is given here.

Take `O=C(CCCCO)OCCc1c[nH]c2ccccc12`: in assay [1], the Activity was found to be 47%.
With `CC(O)C(=O)OCCc1c[nH]c2ccccc12` (stereo not drawn), the Activity in assay [1] worked out at 33%.
Consider `OCCc1c[nH]c2ccccc12`, for which, in assay [1], the Activity is 52%. In assay [2], the outcome was Active.
With `OCCc1ccc(O)cc1`, in assay [1], the Activity was determined as 26%. Also, in assay [3], the outcome was Active.
As for `Cc1cc(C(C)(C)C)c(O)c(C(C)(C)C)c1`, the Activity in assay [1] is 86%.
Same read-out and setting: the same measure for `O=C1N[C@@H](Cc2ccc(O)cc2)C(=O)N2CCC[C@@H]12`: 16%.
